Assay: xn = mol fraction of the nth substance listed
Details: for surface tension liquid-gas: Capillary rise; for mass density / viscosity: 101 kPa, Liquid

C1COCO1 [1,3-dioxolane] + CC(C)CC(C)(C)C
Details | mass density, 288.15 K [kg/m3] | mass density, 298.15 K [kg/m3] | mass density, 308.15 K [kg/m3] | surface tension liquid-gas, 288.15 K [mN/m] | surface tension liquid-gas, 298.15 K [mN/m] | surface tension liquid-gas, 308.15 K [mN/m] | viscosity, 288.15 K [mPa·s] | viscosity, 298.15 K [mPa·s] | viscosity, 308.15 K [mPa·s]
x1 = 0.0501 | 704.03 | 695.41 | 686.72 | 19.37 | 18.57 | 17.58 | 0.529 | 0.48 | 0.431
x1 = 0.1 | 712.38 | 703.47 | 694.59 | 19.55 | 18.75 | 17.78 | 0.528 | 0.478 | 0.432
x1 = 0.15 | 721.22 | 712.11 | 703.08 | 19.7 | 18.92 | 17.93 | 0.527 | 0.478 | 0.432
x1 = 0.2 | 730.61 | 721.42 | 712.28 | 19.83 | 19.07 | 18.08 | 0.527 | 0.479 | 0.433
x1 = 0.25 | 740.66 | 731.37 | 722.16 | 19.97 | 19.2 | 18.23 | 0.528 | 0.479 | 0.433
x1 = 0.3 | 751.51 | 742.15 | 732.81 | 20.08 | 19.33 | 18.37 | 0.532 | 0.48 | 0.433
x1 = 0.35 | 763.25 | 753.76 | 744.31 | 20.22 | 19.47 | 18.53 | 0.536 | 0.483 | 0.434
x1 = 0.4 | 775.92 | 766.31 | 756.72 | 20.38 | 19.63 | 18.72 | 0.541 | 0.487 | 0.438
x1 = 0.45 | 789.66 | 779.89 | 770.11 | 20.57 | 19.82 | 18.93 | 0.547 | 0.492 | 0.442
x1 = 0.5 | 804.59 | 794.63 | 784.66 | 20.78 | 20.03 | 19.15 | 0.554 | 0.498 | 0.447
x1 = 0.55 | 820.88 | 810.69 | 800.5 | 21.02 | 20.3 | 19.42 | 0.561 | 0.504 | 0.453
x1 = 0.6 | 838.7 | 828.25 | 817.8 | 21.32 | 20.6 | 19.72 | 0.568 | 0.511 | 0.46
x1 = 0.65 | 858.32 | 847.56 | 836.8 | 21.63 | 20.93 | 20.05 | 0.576 | 0.519 | 0.467
x1 = 0.7 | 879.84 | 868.87 | 857.72 | 22 | 21.32 | 20.47 | 0.585 | 0.527 | 0.475
x1 = 0.75 | 903.63 | 892.42 | 880.96 | 22.43 | 21.8 | 20.95 | 0.595 | 0.536 | 0.484
x1 = 0.8 | 929.95 | 918.53 | 906.76 | 23 | 22.4 | 21.57 | 0.605 | 0.546 | 0.494
x1 = 0.85 | 959.26 | 947.66 | 935.7 | 23.85 | 23.32 | 22.6 | 0.617 | 0.557 | 0.505
x1 = 0.9 | 992.11 | 980.35 | 968.03 | 25.35 | 24.9 | 24.22 | 0.632 | 0.571 | 0.515
x1 = 0.95 | 1029.19 | 1017.39 | 1004.78 | 28.33 | 27.6 | 26.78 | 0.651 | 0.584 | 0.526
x1 = 1 | 1071.24 | 1059.29 | 1046.85 | 34.37 | 32.55 | 30.67 | 0.667 | 0.596 | 0.535

C1COCO1 [1,3-dioxolane] + CC(C)O
Details | mass density, 288.15 K [kg/m3] | mass density, 298.15 K [kg/m3] | mass density, 308.15 K [kg/m3] | surface tension liquid-gas, 288.15 K [mN/m] | surface tension liquid-gas, 298.15 K [mN/m] | surface tension liquid-gas, 308.15 K [mN/m] | viscosity, 288.15 K [mPa·s] | viscosity, 298.15 K [mPa·s] | viscosity, 308.15 K [mPa·s]
x1 = 0.05 | 802.01 | 793.33 | 784.33 | 21.98 | 21.22 | 20.48 | 2.285 | 1.69 | 1.299
x1 = 0.1 | 814.65 | 805.66 | 796.38 | 22.23 | 21.52 | 20.8 | 1.846 | 1.429 | 1.126
x1 = 0.15 | 827.45 | 818.26 | 808.69 | 22.53 | 21.8 | 21.1 | 1.564 | 1.237 | 0.999
x1 = 0.2 | 840.43 | 831.03 | 821.18 | 22.85 | 22.1 | 21.42 | 1.371 | 1.099 | 0.895
x1 = 0.25 | 853.56 | 843.97 | 833.89 | 23.2 | 22.4 | 21.7 | 1.221 | 0.992 | 0.817
x1 = 0.3001 | 866.86 | 857.09 | 846.77 | 23.57 | 22.75 | 22 | 1.105 | 0.908 | 0.756
x1 = 0.35 | 880.33 | 870.34 | 859.8 | 23.95 | 23.12 | 22.33 | 1.012 | 0.84 | 0.706
x1 = 0.4 | 893.96 | 883.74 | 873.01 | 24.38 | 23.5 | 22.7 | 0.934 | 0.784 | 0.667
x1 = 0.45 | 907.75 | 897.31 | 886.41 | 24.83 | 23.93 | 23.12 | 0.874 | 0.74 | 0.637
x1 = 0.5 | 921.7 | 911.08 | 899.98 | 25.32 | 24.42 | 23.55 | 0.823 | 0.72 | 0.609
x1 = 0.55 | 935.82 | 925.02 | 913.73 | 25.85 | 24.92 | 24.03 | 0.779 | 0.671 | 0.586
x1 = 0.6 | 950.11 | 939.14 | 927.66 | 26.43 | 25.48 | 24.55 | 0.745 | 0.645 | 0.568
x1 = 0.65 | 964.58 | 953.43 | 941.79 | 27.05 | 26.1 | 25.15 | 0.719 | 0.626 | 0.555
x1 = 0.7001 | 979.2 | 967.87 | 956.09 | 27.75 | 26.77 | 25.8 | 0.697 | 0.611 | 0.542
x1 = 0.75 | 994.01 | 982.51 | 970.57 | 28.57 | 27.53 | 26.5 | 0.682 | 0.599 | 0.531
x1 = 0.8 | 1009 | 997.36 | 985.26 | 29.47 | 28.38 | 27.28 | 0.671 | 0.592 | 0.525
x1 = 0.85 | 1024.2 | 1012.38 | 1000.13 | 30.5 | 29.33 | 28.1 | 0.657 | 0.587 | 0.52
x1 = 0.9 | 1039.61 | 1027.67 | 1015.21 | 31.63 | 30.37 | 28.95 | 0.636 | 0.585 | 0.519
x1 = 0.95 | 1055.25 | 1043.29 | 1030.71 | 32.95 | 31.43 | 29.82 | 0.635 | 0.587 | 0.523
x1 = 1 | 1071.24 | 1059.29 | 1046.85 | 34.37 | 32.55 | 30.67 | 0.667 | 0.596 | 0.535

Source: the NIST ThermoML archive (doi:10.1021/je800664z)
